Experimental data published in paper PMC5025651, “Reprofiled anthelmintics abate hypervirulent stationary-phase Clostridium difficile” (Scientific Reports, 2016).
Values after ≈ are worked out from the molar mass of the structure shown. Counter-ions that a name gives are not always drawn. Like-named read-outs stand apart in the source and are kept apart here.

What was measured:
[1] = Hemolysis assay; assay type: cell-based; settings: sheep, sheep red blood cells (3% suspension), pH 7.4; 32 µg/mL, 1 h, 37 °C; 1% Triton X-100 positive control; triplicate; read-out: Hemolysis (%)
Description: Sheep red blood cells (Innovative Research, Novi, MI, USA) were washed three times with PBS pH 7.4. A 3% cell suspension in PBS (100 μL) was added to test compounds in PBS (100 μL, to a final concentration of 32 μg/mL), and then incubated at 37 °C for 1 h. The plate was centrifuged at 500 × g for 10 min, and supernatants (100 μL) were transferred to a clean 96-well plate. Hemolysis was determined by measuring absorbance at 540 nm, with 1% Triton X-100 as the positive control and 0.5% DMSO in PBS as the negative control. Hemolysis assays were performed in triplicate.

[2] = tested on: B. subtilis ATCC 6051; assay: MIC by broth microdilution; assay type: cell-based; settings: Bacillus subtilis, ATCC6051; B. subtilis ATCC 6051; CAMHB, aerobic; duplicate; read-out: MIC
[3] = tested on: C. difficile isolate 20110742 (ribotype 002); assay: MIC by broth microdilution; assay type: cell-based, Clostridium difficile; settings: Clostridioides difficile; isolate 20110742, ribotype 002; duplicate; read-out: MIC
[4] = tested on: L. reuteri Strain CF48-3A; assay: MIC by broth microdilution; assay type: cell-based, Lactobacillus reuteri; settings: Limosilactobacillus reuteri; L. reuteri CF48-3A; CAMHB with 5% laked horse blood, ~48 h; duplicate; read-out: MIC
[5] = tested on: C. clostridioforme ATCC 25537; assay: MIC by broth microdilution; assay type: cell-based, Clostridium clostridioforme; settings: Clostridium, ATCC25537; C. clostridioforme ATCC 25537; BHIS, anaerobic; duplicate; read-out: MIC
[6] = tested on: C. difficile isolate 20110961 (ribotype A12); assay: MIC by broth microdilution; assay type: cell-based, Clostridium difficile; settings: Clostridioides difficile; isolate 20110961, ribotype A12; duplicate; read-out: MIC
[7] = tested on: C. difficile isolate 20121190 (ribotype 126); assay: MIC by broth microdilution; assay type: cell-based, Clostridium difficile; settings: Clostridioides difficile; isolate 20121190, ribotype 126; duplicate; read-out: MIC
[8] = tested on: C. difficile isolate 20110740 (ribotype 018); assay: MIC by broth microdilution; assay type: cell-based, Clostridium difficile; settings: Clostridioides difficile; isolate 20110740, ribotype 018; duplicate; read-out: MIC
[9] = tested on: P. distasonis ATCC 8503; assay: MIC by broth microdilution; assay type: cell-based; settings: Parabacteroides distasonis, ATCC8503
[10] = tested on: P. nigrescens ATCC 33563; assay: MIC by broth microdilution; assay type: cell-based; settings: Prevotella nigrescens, ATCC33563
[11] = tested on: B. fragilis Strain CL05T00C42; assay: MIC by broth microdilution; assay type: cell-based; settings: Bacteroides fragilis
[12] = tested on: C. difficile isolate 20110869 (ribotype 001_072); assay: MIC by broth microdilution; assay type: cell-based, Clostridium difficile; settings: Clostridioides difficile; isolate 20110869, ribotype 001_072; duplicate; read-out: MIC
[13] = tested on: C. difficile isolate 20110973 (ribotype 106); assay: MIC by broth microdilution; assay type: cell-based, Clostridium difficile; settings: Clostridioides difficile; isolate 20110973, ribotype 106; duplicate; read-out: MIC
[14] = tested on: C. difficile strain 4118; assay: Time-kill kinetics against stationary-phase cultures; assay type: cell-based, Clostridium difficile
Description: At t = 0, 3, 6 and 24 h, sample aliquots were withdrawn from the treated cultures and bacterial viability was scored by plating serial dilutions on BHIS agar plates. The agar plates were incubated in the anaerobic chamber for 20–24 h at 37 °C. Kinetic experiments were performed at least twice.

[15] = tested on: C. sporogenes ATCC 15579; assay: MIC by broth microdilution; assay type: cell-based; settings: Clostridium sporogenes, ATCC15579, BHIS, anaerobic, duplicate
[16] = tested on: C. difficile isolate 20111163 (ribotype 024); assay: MIC by broth microdilution; assay type: cell-based, Clostridium difficile; settings: Clostridioides difficile; isolate 20111163, ribotype 024; duplicate; read-out: MIC
[17] = tested on: S. epidermidis 1457; assay: MIC by broth microdilution; assay type: cell-based; settings: Staphylococcus epidermidis; S. epidermidis 1457; CAMHB, aerobic; duplicate; read-out: MIC
[18] = tested on: L. plantarum ATCC 8014; assay: MIC by broth microdilution; assay type: cell-based; settings: Lactiplantibacillus plantarum, ATCC8014; L. plantarum ATCC 8014; CAMHB with 5% laked horse blood, ~48 h; duplicate; read-out: MIC
[19] = tested on: B. thetaiotaomicron ATCC 29148; assay: microbe, parasite or virus in culture; assay type: cell-based; settings: Bacteroides thetaiotaomicron, ATCC29148
[20] = tested on: S. aureus RN4220; assay: MIC by broth microdilution; assay type: cell-based; settings: Staphylococcus aureus, CAMHB, aerobic, duplicate
[21] = tested on: B. longum subsp. longum Strain 44B; assay: MIC by broth microdilution; assay type: cell-based; settings: Bifidobacterium longum; B. longum subsp. longum 44B; LSM broth, anaerobic; duplicate; read-out: MIC
[22] = tested on: B. breve Strain EX336960VC19; assay: MIC by broth microdilution; assay type: cell-based; settings: Bifidobacterium breve; B. breve EX336960VC19; LSM broth, anaerobic; duplicate; read-out: MIC
[23] = tested on: C. difficile isolate 20121412 (ribotype 047); assay: MIC by broth microdilution; assay type: cell-based, Clostridium difficile; settings: Clostridioides difficile; isolate 20121412, ribotype 047; duplicate; read-out: MIC
[24] = tested on: C. difficile strain 4118 (CD4118, ATCC BAA-1870, ribotype 027); assay: MIC by broth microdilution; assay type: cell-based, Clostridium difficile; settings: BHIS broth, anaerobic, 20–24 h, n = 2; for MIC: Clostridioides difficile, ATCCBAA1870, read-out: MIC C. difficile 4118
[25] = tested on: C. difficile isolate 20110566 (ribotype 020); assay: MIC by broth microdilution; assay type: cell-based, Clostridium difficile; settings: Clostridioides difficile; isolate 20110566, ribotype 020; duplicate; read-out: MIC
[26] = tested on: P. aeruginosa PAO1; assay: MIC by broth microdilution; assay type: cell-based; settings: Pseudomonas aeruginosa; P. aeruginosa PAO1; CAMHB, aerobic; duplicate; read-out: MIC
[27] = tested on: C. difficile strain 4118; assay: Minimum bactericidal concentration (MBC), logarithmic- and stationary-phase cells; assay type: cell-based, Clostridium difficile
Description: The procedure for MBC determination was adapted from that of Alam et al.[44]. Briefly, a single overnight colony of C. difficile strain 4118 (streaked onto blood agar plate) was suspended in BHIS and grown to OD600 ~ 0.4–0.5 (logarithmic phase) or for 24 h (stationary phase). In 96-well microtiter plates, cultures were added to two-fold serial dilutions of test compounds in BHIS and incubated for 20–24 h at 37 °C in an anaerobic chamber. […] MBC measurements were performed in duplicate.

[28] = tested on: C. difficile isolate 20110960 (ribotype 017); assay: MIC by broth microdilution; assay type: cell-based, Clostridium difficile; settings: Clostridioides difficile; isolate 20110960, ribotype 017; duplicate; read-out: MIC
[29] = tested on: C. difficile isolate 20120016 (ribotype 019); assay: MIC by broth microdilution; assay type: cell-based, Clostridium difficile; settings: Clostridioides difficile; isolate 20120016, ribotype 019; duplicate; read-out: MIC
[30] = tested on: C. difficile isolate 20100422 (ribotype 054); assay: MIC by broth microdilution; assay type: cell-based, Clostridium difficile; settings: Clostridioides difficile; isolate 20100422, ribotype 054; duplicate; read-out: MIC
[31] = tested on: 16 C. difficile isolates; assay: MIC by broth microdilution, summary over 16 C. difficile isolates; assay type: cell-based, Clostridium difficile; settings: for MIC50: MIC at which 50% of the 16 isolates are inhibited; for MIC90: MIC at which 90% of the 16 isolates are inhibited

For O=C(Nc1ccc(Oc2ccc(Cl)cc2)cc1)c1cc(Cl)cc(Cl)c1O [Compound 8], the hemolysis at 1 h, 32 µg/mL [1] was under 1%, the MIC [2] was at most 0.03 µg/mL and the MIC [3] was 0.06 µg/mL (≈ 0.147 µM). The MIC [4] was 16 µg/mL (≈ 39.2 µM), the MIC [5] was 4 µg/mL (≈ 9.79 µM) and the MIC [6] was 0.13 µg/mL (≈ 0.318 µM). The MIC [7] was 0.25 µg/mL (≈ 0.612 µM), the MIC [8] was 0.06 µg/mL (≈ 0.147 µM) and the MIC ([9]; P. distasonis ATCC 8503, supplemented Brucella broth, anaerobic, duplicate, read-out: MIC) was 4 µg/mL (≈ 9.79 µM). For the same molecule, the MIC ([10]; P. nigrescens ATCC 33563, supplemented Brucella broth, anaerobic, duplicate, read-out: MIC) was 4 µg/mL (≈ 9.79 µM), the MIC ([11]; B. fragilis CL05T00C42, supplemented Brucella broth, anaerobic, duplicate, read-out: MIC) was 16 µg/mL (≈ 39.2 µM) and the MIC [12] was 0.06 to 0.13 µg/mL (≈ 0.147 to 0.318 µM). For the same molecule, the MIC [13] was 0.03 µg/mL (≈ 0.0734 µM), the “log decrease in the number of CFUs” value ([14]; 4 × MIC, 24 h, stationary-phase CD4118) was 2.4 log and the “time to eradicate >99.9% of viable cells” value ([14]; 16× MIC (rafoxanide 2 μg/mL, closantel 4 μg/mL, compound 8 1 μg/mL), stationary-phase CD4118) was 24 h. For the same molecule, the MIC [15] was 4 µg/mL (≈ 9.79 µM), the MIC [16] was 0.13 µg/mL (≈ 0.318 µM) and the MIC [17] was at most 0.03 µg/mL. For the same molecule, the MIC [18] was 16 µg/mL (≈ 39.2 µM), the MIC ([19]; B. thetaiotaomicron ATCC 29148, supplemented Brucella broth, anaerobic, duplicate, read-out: MIC) was over 32 µg/mL and the MIC [20] was 0.13 µg/mL (≈ 0.318 µM). The MIC [21] was 8 µg/mL (≈ 19.6 µM), the MIC [22] was 8 µg/mL (≈ 19.6 µM) and the MIC [23] was 0.13 µg/mL (≈ 0.318 µM). The MIC [24] was 0.06 µg/mL (≈ 0.147 µM), the MIC [25] was 0.06 µg/mL (≈ 0.147 µM) and the MIC [26] was over 32 µg/mL. It also gave an MBC ([27]; Clostridioides difficile, 4118, minimum bactericidal concentration (≥3-log reduction) for logarithmic-phase cells, 20–24 h, n = 2, read-out: MBClog) of 0.25 µg/mL (≈ 0.612 µM), an MBC ([27]; Clostridioides difficile, 4118, minimum bactericidal concentration (≥3-log reduction) for stationary-phase cells, 20–24 h, n = 2, read-out: MBCstat) of 1 µg/mL (≈ 2.45 µM) and an MIC [28] of 0.06 µg/mL (≈ 0.147 µM). For the same molecule, the MIC [29] was 0.13 µg/mL (≈ 0.318 µM), the MIC [30] was 0.25 µg/mL (≈ 0.612 µM) and the MIC ([31]; Clostridioides difficile, 14 isolates other than CD630 and CD4118, read-out: MIC values ranging, 14 other C. difficile isolates) was 0.03 to 0.25 µg/mL (≈ 0.0734 to 0.612 µM). The MIC50 ([31]; n = 2) was 0.06 µg/mL (≈ 0.147 µM) and the MIC90 ([31]; n = 2) was 0.25 µg/mL (≈ 0.612 µM).

In the case of CN[C@H](CC(C)C)C(=O)N[C@H]1C(=O)N[C@@H](CC(N)=O)C(=O)N[C@H]2C(=O)N[C@H]3C(=O)N[C@H](C(=O)N[C@H](C(=O)O)c4cc(O)cc(O)c4-c4cc3ccc4O)[C@H](O)c3ccc(c(Cl)c3)Oc3cc2cc(c3O[C@@H]2O[C@H](CO)[C@@H](O)[C@H](O)[C@H]2O[C@H]2C[C@](C)(N)[C@H](O)[C@H](C)O2)Oc2ccc(cc2Cl)[C@H]1O [Vancomycin, vancomycin hydrochloride hydrate], the MIC [2] is reported as 0.13 µg/mL, the MIC [3] is reported as 0.5 to 1 µg/mL and the MIC [4] is reported as over 32 µg/mL. It also gave an MIC [5] of 0.5 µg/mL, an MIC [6] of 1 µg/mL and an MIC [7] of 0.5 µg/mL. It also gave an MIC [8] of 1 µg/mL, an MIC [9] of over 32 µg/mL and an MIC [10] of over 32 µg/mL. The MIC [11] was 32 µg/mL, the MIC [12] was 1 µg/mL and the MIC [13] was 2 µg/mL. The “log killing of CD4118 stationary-phase cells” value ([14]; 16× MIC (metronidazole 4 μg/mL, vancomycin 32 μg/mL), up to 24 h) was under 3 log, the MIC [15] was 2 µg/mL and the MIC [16] was 1 µg/mL. It also gave an MIC [17] of 2 µg/mL, an MIC [18] of over 32 µg/mL and an MIC [19] of over 32 µg/mL. The MIC [20] was 1 µg/mL, the MIC [21] was 0.25 µg/mL and the MIC [22] was 0.5 µg/mL. The MIC [23] was 1 µg/mL, the “MIC C. difficile 4118” value [24] was 2 µg/mL and the MIC [24] was 2 µg/mL. It also gave an MIC [25] of 0.5 µg/mL, an MIC [26] of over 32 µg/mL and an MBC ([27]; Clostridioides difficile, 4118, read-out: MBClog) of 8 µg/mL. The MBC ([27]; Clostridioides difficile, 4118, read-out: MBCstat) was over 32 µg/mL, the “log reduction of CD4118 stationary-phase cells” value ([27]; at 32 μg/mL, 20–24 h) was under 3 log and the MIC [28] was 0.5 µg/mL. The MIC [29] was 0.5 µg/mL, the MIC [30] was 1 µg/mL and the MIC50 ([31]; Clostridioides difficile, n = 2, read-out: MIC50) was 1 µg/mL. The MIC90 ([31]; Clostridioides difficile, n = 2, read-out: MIC90) was 2 µg/mL and the “MIC Range” value ([31]; range over 16 C. difficile isolates, n = 2) was 0.5 to 2 µg/mL.
